{"source": "patent US10168342B2", "about": "“Lipid probes and uses thereof” (THE SCRIPPS RESEARCH INSTITUTE, priority 2015, dated 2019)", "key": {"[1]": {"target": "T1, AEA-DA lipid probe targets in Neuro2a cells (Mus musculus, UniProt P54071)", "T1 sequence (P54071 40-452)": "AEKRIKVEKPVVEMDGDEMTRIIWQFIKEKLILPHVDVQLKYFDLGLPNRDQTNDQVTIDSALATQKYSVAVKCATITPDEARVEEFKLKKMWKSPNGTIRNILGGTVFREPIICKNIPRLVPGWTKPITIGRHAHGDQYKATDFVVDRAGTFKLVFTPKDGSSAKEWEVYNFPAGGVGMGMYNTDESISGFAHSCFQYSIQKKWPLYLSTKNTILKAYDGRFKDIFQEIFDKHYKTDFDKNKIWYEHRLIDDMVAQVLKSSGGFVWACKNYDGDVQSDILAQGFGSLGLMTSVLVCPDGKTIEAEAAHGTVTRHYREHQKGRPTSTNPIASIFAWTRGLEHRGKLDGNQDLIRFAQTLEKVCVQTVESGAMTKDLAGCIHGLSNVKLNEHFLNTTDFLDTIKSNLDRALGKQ"}, "[2]": {"target": "T2, AEA-DA lipid probe targets in Neuro2a cells (Mus musculus, UniProt Q791V5)", "T2 sequence (Q791V5 1-303)": "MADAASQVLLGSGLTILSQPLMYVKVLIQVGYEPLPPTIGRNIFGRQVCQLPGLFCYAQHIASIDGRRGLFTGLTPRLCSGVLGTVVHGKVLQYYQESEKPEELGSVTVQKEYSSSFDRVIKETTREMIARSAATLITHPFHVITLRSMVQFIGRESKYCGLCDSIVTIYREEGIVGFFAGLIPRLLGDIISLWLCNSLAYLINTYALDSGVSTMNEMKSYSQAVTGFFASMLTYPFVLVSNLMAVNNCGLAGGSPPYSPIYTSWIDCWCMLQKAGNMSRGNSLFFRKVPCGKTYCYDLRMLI"}, "[3]": {"target": "T3, AEA-DA lipid probe targets in Neuro2a cells (Mus musculus, UniProt O08579)", "T3 sequence (O08579 1-259)": "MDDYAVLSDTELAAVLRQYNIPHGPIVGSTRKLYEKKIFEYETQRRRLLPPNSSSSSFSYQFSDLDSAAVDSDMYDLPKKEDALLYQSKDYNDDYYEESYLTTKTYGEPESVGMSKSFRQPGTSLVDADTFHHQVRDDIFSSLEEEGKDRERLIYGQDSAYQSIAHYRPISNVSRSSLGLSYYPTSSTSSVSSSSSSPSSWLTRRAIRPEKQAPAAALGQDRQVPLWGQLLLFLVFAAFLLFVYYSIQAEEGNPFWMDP", "conditions": "for SILAC ratio, EMD (O08579): Neuro2a cells, AEA-DA probe"}, "[4]": {"target": "T4, AEA-DA lipid probe targets in Neuro2a cells (Mus musculus, UniProt P43883)", "T4 sequence (P43883 1-425)": "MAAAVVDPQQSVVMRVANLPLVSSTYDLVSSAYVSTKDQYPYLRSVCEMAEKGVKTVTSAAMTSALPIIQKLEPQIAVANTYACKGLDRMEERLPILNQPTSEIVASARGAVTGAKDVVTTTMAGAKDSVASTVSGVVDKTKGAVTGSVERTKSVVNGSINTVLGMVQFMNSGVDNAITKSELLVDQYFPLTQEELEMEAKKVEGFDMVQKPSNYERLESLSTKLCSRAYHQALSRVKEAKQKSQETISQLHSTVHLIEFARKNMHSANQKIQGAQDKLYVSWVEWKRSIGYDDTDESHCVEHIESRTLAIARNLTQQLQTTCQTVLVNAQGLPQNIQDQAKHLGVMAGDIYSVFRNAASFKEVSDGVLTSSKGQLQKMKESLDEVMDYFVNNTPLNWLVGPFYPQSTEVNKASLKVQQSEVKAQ"}, "[5]": {"target": "T5, AEA-DA lipid probe targets in Neuro2a cells (Mus musculus, UniProt Q8BXN9)", "T5 sequence (Q8BXN9 22-555)": "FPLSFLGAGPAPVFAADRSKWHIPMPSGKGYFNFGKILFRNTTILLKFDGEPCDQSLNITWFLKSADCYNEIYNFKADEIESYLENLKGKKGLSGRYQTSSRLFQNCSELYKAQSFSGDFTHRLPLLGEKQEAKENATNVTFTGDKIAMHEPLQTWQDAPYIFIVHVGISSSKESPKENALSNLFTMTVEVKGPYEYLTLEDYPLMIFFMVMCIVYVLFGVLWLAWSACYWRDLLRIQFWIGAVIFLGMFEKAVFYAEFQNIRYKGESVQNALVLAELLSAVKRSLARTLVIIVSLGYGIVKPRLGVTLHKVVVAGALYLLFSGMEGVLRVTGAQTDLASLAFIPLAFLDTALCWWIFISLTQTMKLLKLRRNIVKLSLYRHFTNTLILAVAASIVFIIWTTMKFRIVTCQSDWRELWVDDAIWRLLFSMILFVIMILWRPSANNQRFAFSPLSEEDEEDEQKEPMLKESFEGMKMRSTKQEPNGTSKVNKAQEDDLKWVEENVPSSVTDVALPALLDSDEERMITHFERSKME"}, "[6]": {"target": "AEA-DA lipid probe targets in Neuro2a cells (Mus musculus, UniProt Q9DBG6)", "sequence (Q9DBG6 23-631)": "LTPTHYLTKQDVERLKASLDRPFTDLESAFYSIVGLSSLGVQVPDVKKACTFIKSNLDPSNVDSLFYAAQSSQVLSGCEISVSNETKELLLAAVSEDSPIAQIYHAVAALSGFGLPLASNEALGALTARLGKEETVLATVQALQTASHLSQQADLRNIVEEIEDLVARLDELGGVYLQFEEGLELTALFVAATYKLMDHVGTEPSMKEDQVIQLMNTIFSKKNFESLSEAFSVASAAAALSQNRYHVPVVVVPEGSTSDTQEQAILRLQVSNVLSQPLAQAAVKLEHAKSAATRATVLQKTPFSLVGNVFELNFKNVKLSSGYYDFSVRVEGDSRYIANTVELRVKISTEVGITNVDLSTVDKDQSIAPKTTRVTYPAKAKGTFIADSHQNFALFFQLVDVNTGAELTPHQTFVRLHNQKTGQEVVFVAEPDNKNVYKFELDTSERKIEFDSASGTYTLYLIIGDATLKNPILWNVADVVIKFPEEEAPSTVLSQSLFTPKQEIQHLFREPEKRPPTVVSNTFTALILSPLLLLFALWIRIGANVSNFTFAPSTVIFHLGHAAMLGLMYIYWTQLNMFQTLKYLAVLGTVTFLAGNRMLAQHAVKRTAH"}, "[7]": {"target": "AEA-DA lipid probe targets in Neuro2a cells (Mus musculus, UniProt Q9DBC7)", "sequence (Q9DBC7 whole entry)": "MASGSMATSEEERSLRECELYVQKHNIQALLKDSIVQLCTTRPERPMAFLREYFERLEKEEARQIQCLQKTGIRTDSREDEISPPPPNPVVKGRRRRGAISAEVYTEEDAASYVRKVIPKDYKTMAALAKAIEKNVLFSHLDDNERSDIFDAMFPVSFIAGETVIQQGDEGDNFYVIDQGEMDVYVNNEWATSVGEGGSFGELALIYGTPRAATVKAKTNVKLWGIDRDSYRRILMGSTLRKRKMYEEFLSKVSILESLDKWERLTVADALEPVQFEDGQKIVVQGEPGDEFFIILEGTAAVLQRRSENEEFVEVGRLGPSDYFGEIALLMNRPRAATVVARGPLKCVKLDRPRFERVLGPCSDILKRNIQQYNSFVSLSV"}, "[8]": {"target": "AEA-DA lipid probe targets in Neuro2a cells (Mus musculus, UniProt O55143)", "sequence (O55143 whole entry)": "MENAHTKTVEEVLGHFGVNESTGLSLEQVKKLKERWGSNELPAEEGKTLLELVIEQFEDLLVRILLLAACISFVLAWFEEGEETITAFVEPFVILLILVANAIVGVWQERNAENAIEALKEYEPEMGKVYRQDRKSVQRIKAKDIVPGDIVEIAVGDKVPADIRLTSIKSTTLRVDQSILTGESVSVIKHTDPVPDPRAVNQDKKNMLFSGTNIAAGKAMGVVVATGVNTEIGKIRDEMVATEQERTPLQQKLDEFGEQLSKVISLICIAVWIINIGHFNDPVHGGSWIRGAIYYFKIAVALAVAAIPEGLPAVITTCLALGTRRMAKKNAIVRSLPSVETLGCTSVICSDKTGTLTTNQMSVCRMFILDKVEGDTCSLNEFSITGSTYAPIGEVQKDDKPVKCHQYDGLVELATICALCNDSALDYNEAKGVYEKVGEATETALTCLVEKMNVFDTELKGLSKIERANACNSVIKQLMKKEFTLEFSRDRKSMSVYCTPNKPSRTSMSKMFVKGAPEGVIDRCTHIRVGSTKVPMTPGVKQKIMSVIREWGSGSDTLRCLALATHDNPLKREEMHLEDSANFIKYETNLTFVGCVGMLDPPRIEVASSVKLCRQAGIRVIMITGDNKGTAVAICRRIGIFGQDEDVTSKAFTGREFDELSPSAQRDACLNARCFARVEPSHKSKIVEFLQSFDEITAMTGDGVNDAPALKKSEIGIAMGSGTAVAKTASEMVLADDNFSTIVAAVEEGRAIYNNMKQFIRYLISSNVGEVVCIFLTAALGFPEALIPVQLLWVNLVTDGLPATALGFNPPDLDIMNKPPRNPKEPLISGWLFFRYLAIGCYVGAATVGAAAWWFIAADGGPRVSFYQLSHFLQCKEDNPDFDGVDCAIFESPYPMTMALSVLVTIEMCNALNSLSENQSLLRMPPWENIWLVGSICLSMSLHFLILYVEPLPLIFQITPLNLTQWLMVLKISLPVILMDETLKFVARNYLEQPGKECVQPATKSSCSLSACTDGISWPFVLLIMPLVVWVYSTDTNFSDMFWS"}}, "note": "Like-named read-outs stand apart in the source and are kept apart here."}
{"smiles": "CCCCC/C=C\\C/C=C\\C/C=C\\C/C=C\\CCCC(=O)NCCO", "note": "[AEA, anandamide, reference compound]", "values": [{"measurement": "SILAC ratio Idh2", "setting": "[1]; competitor 200 μM", "value": 1.2}, {"measurement": "SILAC ratio Mtch2", "setting": "[2]; competitor 200 μM", "value": 1.5}, {"measurement": "SILAC ratio, EMD (O08579)", "setting": "[3]; competitor 200 μM", "value": 1.4}, {"measurement": "SILAC ratio, Emd", "setting": "[3]; competitor 200 μM", "value": 1.4}, {"measurement": "SILAC ratio, Plin2", "setting": "[4]; competitor 200 μM", "value": 1.4}, {"measurement": "SILAC ratio, Tmem87a", "setting": "[5]; competitor 200 μM", "value": 1.8}, {"measurement": "SILAC ratio Rpn2", "setting": "[6]; competitor 200 μM", "value": 1.3}, {"measurement": "SILAC ratio, Prkar1a", "setting": "[7]; competitor 200 μM", "value": 1.2}, {"measurement": "SILAC ratio, Atp2a2", "setting": "[8]; competitor 200 μM", "value": 2.2}]}
{"smiles": "O=C(/C=C/c1cccnc1)NCCCCC1CCN(C(=O)c2ccccc2)CC1", "note": "[FK-866, reference compound]", "values": [{"measurement": "SILAC ratio Idh2", "setting": "[1]; competitor 25 μM", "value": 1.2}, {"measurement": "SILAC ratio Mtch2", "setting": "[2]; competitor 25 μM", "value": 1.1}, {"measurement": "SILAC ratio, EMD (O08579)", "setting": "[3]; competitor 25 μM", "value": 1.4}, {"measurement": "SILAC ratio, Emd", "setting": "[3]; competitor 25 μM", "value": 1.4}, {"measurement": "SILAC ratio, Plin2", "setting": "[4]; competitor 25 μM", "value": 1.0}, {"measurement": "SILAC ratio, Tmem87a", "setting": "[5]; competitor 25 μM", "value": 1.1}, {"measurement": "SILAC ratio Rpn2", "setting": "[6]; competitor 25 μM", "value": 1.1}, {"measurement": "SILAC ratio, Prkar1a", "setting": "[7]; competitor 25 μM", "value": 1.5}, {"measurement": "SILAC ratio, Atp2a2", "setting": "[8]; competitor 25 μM", "value": 1.1}]}
{"smiles": "CN1CCN(C(=O)c2c(-c3ccccc3)c3cc([N+](=O)[O-])ccc3n2C)CC1", "note": "[KML110, (1-Methyl-5-nitro-3-phenyl-1H-indol-2-yl)(4-methylpiperazin-1-yl)methanone]", "values": [{"measurement": "SILAC ratio Idh2", "setting": "[1]; competitor 25 μM", "value": 1.3}, {"measurement": "SILAC ratio Mtch2", "setting": "[2]; competitor 25 μM", "value": 1.3}, {"measurement": "SILAC ratio, Emd", "setting": "[3]; competitor 25 μM", "value": 1.7}, {"measurement": "SILAC ratio, Plin2", "setting": "[4]; competitor 25 μM", "value": 2.7}, {"measurement": "SILAC ratio, Tmem87a", "setting": "[5]; competitor 25 μM", "value": 1.8}, {"measurement": "SILAC ratio Rpn2", "setting": "[6]; competitor 25 μM", "value": 1.2}, {"measurement": "SILAC ratio, Prkar1a", "setting": "[7]; competitor 25 μM", "value": 1.6}, {"measurement": "SILAC ratio, Atp2a2", "setting": "[8]; competitor 25 μM", "value": 1.3}]}
{"smiles": "CN1CCN(C(=O)c2[nH]c3ccc([N+](=O)[O-])cc3c2-c2ccccc2)CC1", "note": "[MJN228, (4-Methylpiperazin-1-yl)(5-nitro-3-phenyl-1H-indol-2-yl)methanone]", "values": [{"measurement": "SILAC ratio Idh2", "setting": "[1]; competitor 10 μM", "value": 1.3}, {"measurement": "SILAC ratio Idh2", "setting": "[1]; competitor 25 μM", "value": 1.4}, {"measurement": "SILAC ratio Idh2", "setting": "[1]; competitor 50 μM", "value": 1.6}, {"measurement": "SILAC ratio Idh2", "setting": "[1]; competitor 100 μM", "value": 1.6}, {"measurement": "SILAC ratio Mtch2", "setting": "[2]; competitor 10 μM", "value": 1.2}, {"measurement": "SILAC ratio Mtch2", "setting": "[2]; competitor 25 μM", "value": 1.3}, {"measurement": "SILAC ratio Mtch2", "setting": "[2]; competitor 50 μM", "value": 1.1}, {"measurement": "SILAC ratio Mtch2", "setting": "[2]; competitor 100 μM", "value": 1.4}, {"measurement": "SILAC ratio, EMD (O08579)", "setting": "[3]; competitor 25 μM", "value": 2.4}, {"measurement": "SILAC ratio, Emd", "setting": "[3]; competitor 10 μM", "value": 1.8}, {"measurement": "SILAC ratio, Emd", "setting": "[3]; competitor 25 μM", "value": 2.4}, {"measurement": "SILAC ratio, Emd", "setting": "[3]; competitor 50 μM", "value": 2.5}, {"measurement": "SILAC ratio, Emd", "setting": "[3]; competitor 100 μM", "value": 4.5}, {"measurement": "SILAC ratio, Plin2", "setting": "[4]; competitor 10 μM", "value": 1.8}, {"measurement": "SILAC ratio, Plin2", "setting": "[4]; competitor 25 μM", "value": 3.2}, {"measurement": "SILAC ratio, Plin2", "setting": "[4]; competitor 50 μM", "value": 20.0}, {"measurement": "SILAC ratio, Plin2", "setting": "[4]; competitor 100 μM", "value": 20.0}, {"measurement": "SILAC ratio, Tmem87a", "setting": "[5]; competitor 10 μM", "value": 1.3}, {"measurement": "SILAC ratio, Tmem87a", "setting": "[5]; competitor 25 μM", "value": 1.9}, {"measurement": "SILAC ratio, Tmem87a", "setting": "[5]; competitor 50 μM", "value": 1.6}, {"measurement": "SILAC ratio, Tmem87a", "setting": "[5]; competitor 100 μM", "value": 2.7}, {"measurement": "SILAC ratio Rpn2", "setting": "[6]; competitor 10 μM", "value": 1.2}, {"measurement": "SILAC ratio Rpn2", "setting": "[6]; competitor 25 μM", "value": 1.3}, {"measurement": "SILAC ratio Rpn2", "setting": "[6]; competitor 50 μM", "value": 1.4}, {"measurement": "SILAC ratio Rpn2", "setting": "[6]; competitor 100 μM", "value": 1.7}, {"measurement": "SILAC ratio, Prkar1a", "setting": "[7]; competitor 10 μM", "value": 1.9}, {"measurement": "SILAC ratio, Prkar1a", "setting": "[7]; competitor 25 μM", "value": 1.9}, {"measurement": "SILAC ratio, Prkar1a", "setting": "[7]; competitor 50 μM", "value": 2.1}, {"measurement": "SILAC ratio, Prkar1a", "setting": "[7]; competitor 100 μM", "value": 2.8}, {"measurement": "SILAC ratio, Atp2a2", "setting": "[8]; competitor 10 μM", "value": 1.3}, {"measurement": "SILAC ratio, Atp2a2", "setting": "[8]; competitor 25 μM", "value": 1.4}, {"measurement": "SILAC ratio, Atp2a2", "setting": "[8]; competitor 50 μM", "value": 1.4}, {"measurement": "SILAC ratio, Atp2a2", "setting": "[8]; competitor 100 μM", "value": 1.9}]}
{"smiles": "C=CCN(C)CCCCCCOc1ccc(C(=O)c2ccc(Br)cc2)c(F)c1", "note": "[Ro 48-8071, reference compound]", "values": [{"measurement": "SILAC ratio Idh2", "setting": "[1]; competitor 25 μM", "value": 0.9}, {"measurement": "SILAC ratio Mtch2", "setting": "[2]; competitor 25 μM", "value": 0.9}, {"measurement": "SILAC ratio, EMD (O08579)", "setting": "[3]; competitor 25 μM", "value": 1.3}, {"measurement": "SILAC ratio, Emd", "setting": "[3]; competitor 25 μM", "value": 1.3}, {"measurement": "SILAC ratio, Plin2", "setting": "[4]; competitor 25 μM", "value": 1.8}, {"measurement": "SILAC ratio, Tmem87a", "setting": "[5]; competitor 25 μM", "value": 2.3}, {"measurement": "SILAC ratio Rpn2", "setting": "[6]; competitor 25 μM", "value": 1.0}, {"measurement": "SILAC ratio, Prkar1a", "setting": "[7]; competitor 25 μM", "value": 1.0}, {"measurement": "SILAC ratio, Atp2a2", "setting": "[8]; competitor 25 μM", "value": 1.2}]}
